This is an account of results in paper PMC6257762, “Isoquinolines from the Roots of Thalictrum flavum L. and Their Evaluation as Antiparasitic Compounds” (Molecules, 2010).

Where “and” joins values, the source holds several entries; their conditions need not be identical. Equal values may be shown once. Read-outs that look alike come from different tables or passages of the source.

What is called IC50 is the point on the concentration scale where inhibition reaches its midpoint.

In series [1] the test system is MCR-5 cells. The series is described as follows: Cytotoxicity towards MCR-5 (MRC5) cells. It is filed as cell-based. How it is done:
(§1) 3.3. Evaluations of cytotoxicity towards MCR-5 and KB cells
(§2) Cytotoxicities were evaluated at the ICSN-CNRS (Gif sur Yvette, France) on MRC5 and KB cells, in DMSO, at 10 and 1 µg/mL according to the procedure described by Moret et al..

Series [2] deals with Plasmodium falciparum FcB1 Colombia. The series is described as follows: In vitro P. falciparum culture antimalarial activity assay. In kind it is cell-based. How it is done: 3.4. In vitro P. falciparum culture and activity assays
Antimalarial activity was evaluated on FcB1 Colombia strain of Plasmodium falciparum according to a previously described procedure.

Series [3] deals with Leishmania major. As to the kind of experiment: In vitro leishmanicidal activity, promastigote susceptibility (Uptiblue micromethod). In kind it is cell-based. The conditions noted are these: promastigotes, MHOM/Il/81/BNI, 96 h at 26 °C. How it is done:
3.5. In vitro leishmanicidal activity
Leishmania major (MHOM/Il/81/BNI) was cultivated at 26 °C in a Schneider’s insect medium (Sigma, St Quentin Fallavier, France) supplemented with 15% foetal bovine serum (FBS) (Sigma), penicillin (100 IU/mL) and streptomycin (50 µg/mL). Exponentially growing cells were maintained at 26 °C. Promastigote susceptibility testing was performed with the Uptiblue® micromethod previously described. Briefly, 100 µL of a […] promastigotes/mL suspension were placed into wells of a 96-well microplate (Nunc®). The cultures were exposed for 96 h at 26 °C to the antileishmanial drugs at the concentrations used above, except for meglumine antimoniate for which dilutions were 0.2, 2 and 20 mg·mL^-1. Four h before measurement, 10 µL of Uptiblue® were added. The fluorescence was measured at 590 nm with an excitation at 550 nm.

For series [4], the system named is KB cells. The series is described as follows: Cytotoxicity towards KB cells. In kind it is cell-based. How it is done: as §1, §2
Details of series [5]: method as in PMID 17109902. The conditions noted are these: quaternary protoberberines, as expected; cited from earlier work.
The mark [6] stands for this setting: Plasmodium falciparum, FcB1 Colombia strain, read-out: Antimalarial IC50 Plasmodium falciparum FcB1 Colombia.
Setting [7] is: Plasmodium falciparum, FCB1, read-out: Antimalarial IC50 Plasmodium falciparum FcB1 Colombia.

For `COc1cc2c(cc1OC)C(Cc1ccc(O)cc1)N(C)CC2` (single isomer, unassigned; (-)) [(-)-Armepavine 9, (-)-armepavine], the “Cytotoxicity MCR-5 cells 10 µg/mL” value in series [1] (human, 10 µg/mL) is on record as 0. For the same molecule, in series [2] (setting [6]), the IC50 was 3.6 µg/mL and 11.4 µM.

Regarding `COc1cc2c3c(c1OC)Oc1c(OC)c(OC)cc4c1C(Cc1ccc(O)c(c1)Oc1ccc(cc1)CC2N(C)CC3)NCC4` (single isomer, unassigned; (-)) [(-)-Northalfoetidine 5, (-)-northalfoetidine], the “Cytotoxicity MCR-5 cells 10 µg/mL” value in series [1] (human, 10 µg/mL) is reported as 6. Moreover, the IC50 in series [2] (setting [6]) was 2.8 µg/mL and 4.5 µM; in series [3] (Leishmania major) it was 39 µg/mL and 63 µM.

In the case of `COc1ccc2cc1Oc1ccc(cc1)CC1c3cc(OC)c(OC)c(c3CCN1C)Oc1c(OC)c(OC)cc3c1C(C2)NCC3` (single isomer, unassigned; (-)) [(-)-Northalidasine 2, (-)-northalidasine], in series [1] (human, 10 µg/mL), the “Cytotoxicity MCR-5 cells 10 µg/mL” value was 0. In addition, the IC50 was 3.4 µg/mL and 5.2 µM in series [2] (setting [6]); 27 µg/mL and 41 µM in series [3] (Leishmania major).

In the case of `COc1ccc2cc1Oc1ccc(cc1)CC1c3cc(OC)c(OC)c(c3CCN1C)Oc1c(O)c(OC)cc3c1C(C2)NCC3` (single isomer, unassigned; (-)) [(-)-Northalrugosidine 3, (-)-northalrugosidine], the “Cytotoxicity MCR-5 cells 1 µg/mL” value in series [1] (human, 1 µg/mL) is listed as 0. Also, the “Cytotoxicity MCR-5 cells 10 µg/mL” value in series [1] (human, 10 µg/mL) was 77. The IC50 in series [2] (setting [6]) is 2.7 µg/mL and 4.3 µM; in series [3] (Leishmania major), 30 µg/mL and 48 µM.

Take `COc1cc2c3c(c1OC)Oc1c(OC)c(OC)cc4c1C(Cc1ccc(O)c(c1)Oc1ccc(cc1)CC2N(C)CC3)N(C)CC4` (single isomer, unassigned; (-)) [(-)-Thalfoetidine 4, (-)-thalfoetidine]: in series [1] (human, 1 µg/mL), the “Cytotoxicity MCR-5 cells 1 µg/mL” value is 0. In addition, the “Cytotoxicity MCR-5 cells 10 µg/mL” value in series [1] (human, 10 µg/mL) came to 62. Moreover, the IC50 in series [2] (setting [6]) was 2.1 µg/mL and 3.3 µM; in series [3] (Leishmania major), 17 µg/mL and 27 µM.

For `COc1cc2c3c(c1O)Oc1c4c(cc(OC)c1OC)C(Cc1ccc(cc1)Oc1cc(ccc1O)CC3N(C)CC2)N(C)CC4` (single isomer, unassigned; (-)) [(-)-Thaligosidine 6, (-)-thaligosidine], the “Cytotoxicity MCR-5 cells 1 µg/mL” value in series [1] (human, 1 µg/mL) amounted to 0. Further, in series [1] (human, 10 µg/mL), the “Cytotoxicity MCR-5 cells 10 µg/mL” value amounted to 61. Also, the IC50 in series [2] (setting [6]) is 1.2 µg/mL and 2 µM; in series [3] (Leishmania major), 38 µg/mL and 61 µM.

In the case of `COc1cc2c(cc1OC)-c1c3c(c(OC)c4c1[C@H](C2)NCC4)OCO3` [(+)-O-Methylcassythine 7, (+)-O-methylcassythine], the “Cytotoxicity MCR-5 cells 1 µg/mL” value in series [1] (human, 1 µg/mL) is 4. In addition, the “Cytotoxicity MCR-5 cells 10 µg/mL” value in series [1] (human, 10 µg/mL) is reported as 61. Also, the “Cytotoxicity KB cells 10 µg/mL” value in series [4] came out at 49. In addition, the half-maximal inhibitory concentration (IC50) was determined as 3.1 µg/mL in series [2] (setting [7]) and 8.6 µM in series [2] (setting [6]).

`COc1cc2c(cc1OC)-c1c(O)c(OC)c(OC)c3c1[C@H](C2)N(C)CC3` [(+)-Preocoteine 1, (+)-preocoteine]: the “Cytotoxicity MCR-5 cells 10 µg/mL” value in series [1] (human, 10 µg/mL) is on record as 20. Moreover, the “Cytotoxicity KB cells 10 µg/mL” value in series [4] is reported as 23. The IC50 was 0.5 µg/mL in series [2] (setting [7]); 1.3 µM in series [2] (setting [6]); > 100 µg/mL and > 100 µM in series [3] (Leishmania major).

For the molecule `COc1ccc2cc3[n+](cc2c1OC)CCc1cc2c(cc1-3)OCO2` [Berberine 11, berberine], the IC50 in series [2] (setting [6]) was 0.4 µg/mL and 900 nM; in series [3] (Leishmania major) it was 13 µg/mL and 35 µM. The “Cytotoxicity (in words)” value in series [5] is “cytotoxic”.

`CCN(CC)CCCC(C)Nc1ccnc2cc(Cl)ccc12` (stereo not shown) [Chloroquine, reference compound]: in series [2] (setting [7]), the IC50 was 0.06 µg/mL and 100 nM.

Consider `N=C(N)c1ccc(OCCCCCOc2ccc(C(=N)N)cc2)cc1` [Pentamidine, reference compound], for which the IC50 in series [3] (Leishmania major) is 28 µg/mL and 82 µM.

As to `COc1cc2cc3[n+](cc2cc1OC)CCc1cc2c(cc1-3)OCO2` [Pseudoberberine 12, pseudoberberine], the IC50 in series [2] (setting [6]) was 0.5 µg/mL and 1.3 µM; in series [3] (Leishmania major) it was 3.5 µg/mL and 9 µM. Besides, in series [5], the “Cytotoxicity (in words)” value is recorded as “cytotoxic”.

Regarding `COc1cc(CCN(C)C)c2ccc3cc4c(c5c(=O)oc1c2c35)OCO4` [Thaliglucinone 10, thaliglucinone], in series [1] (MCR-5 (MRC5) cells, compound at 1 µg/mL in DMSO), the “Cytotoxicity MCR-5 cells 1 µg/mL” value was 21. Moreover, in series [1] (MCR-5 (MRC5) cells, compound at 10 µg/mL in DMSO), the “Cytotoxicity MCR-5 cells 10 µg/mL” value came to 79. For the same molecule, the IC50 in series [2] (setting [7]) was 2.4 µg/mL; in series [2] (setting [6]), 6.7 µM; in series [3] (Leishmania major), 63 µg/mL and 173 µM.

For the molecule (+)-thalicberine [(+)-Thalicberine 8], the “Cytotoxicity MCR-5 cells 10 µg/mL” value in series [1] worked out at 29. For the same molecule, in series [4], the “Cytotoxicity KB cells 10 µg/mL” value stood at 43. For the same molecule, in series [2] (FcB1 Colombia strain), the “Antimalarial IC50 Plasmodium falciparum FcB1 Colombia” value is given as 2.5 µg/mL. Also, the IC50 in series [2] (FcB1 Colombia strain, read-out: Antimalarial IC50 Plasmodium falciparum FcB1 Colombia) stood at 4.2 µM. Moreover, in series [3], the IC50 was 90 µM and the “Leishmanicidal IC50 Leishmania major” value came out at 55 µg/mL.
